The source of these data is ChEMBL document CHEMBL4251728, “Toll-like Receptors for the Treatment of Autoimmune, Inflammation, and Infectious Diseases” (ACS Med Chem Lett, 2018).

A value given as a limit tells only on which side of the number the result lay.

The assay concerns the target T1, Toll-like receptor 7 (Homo sapiens, UniProt Q9NYK1).
T1 sequence (Q9NYK1 whole entry): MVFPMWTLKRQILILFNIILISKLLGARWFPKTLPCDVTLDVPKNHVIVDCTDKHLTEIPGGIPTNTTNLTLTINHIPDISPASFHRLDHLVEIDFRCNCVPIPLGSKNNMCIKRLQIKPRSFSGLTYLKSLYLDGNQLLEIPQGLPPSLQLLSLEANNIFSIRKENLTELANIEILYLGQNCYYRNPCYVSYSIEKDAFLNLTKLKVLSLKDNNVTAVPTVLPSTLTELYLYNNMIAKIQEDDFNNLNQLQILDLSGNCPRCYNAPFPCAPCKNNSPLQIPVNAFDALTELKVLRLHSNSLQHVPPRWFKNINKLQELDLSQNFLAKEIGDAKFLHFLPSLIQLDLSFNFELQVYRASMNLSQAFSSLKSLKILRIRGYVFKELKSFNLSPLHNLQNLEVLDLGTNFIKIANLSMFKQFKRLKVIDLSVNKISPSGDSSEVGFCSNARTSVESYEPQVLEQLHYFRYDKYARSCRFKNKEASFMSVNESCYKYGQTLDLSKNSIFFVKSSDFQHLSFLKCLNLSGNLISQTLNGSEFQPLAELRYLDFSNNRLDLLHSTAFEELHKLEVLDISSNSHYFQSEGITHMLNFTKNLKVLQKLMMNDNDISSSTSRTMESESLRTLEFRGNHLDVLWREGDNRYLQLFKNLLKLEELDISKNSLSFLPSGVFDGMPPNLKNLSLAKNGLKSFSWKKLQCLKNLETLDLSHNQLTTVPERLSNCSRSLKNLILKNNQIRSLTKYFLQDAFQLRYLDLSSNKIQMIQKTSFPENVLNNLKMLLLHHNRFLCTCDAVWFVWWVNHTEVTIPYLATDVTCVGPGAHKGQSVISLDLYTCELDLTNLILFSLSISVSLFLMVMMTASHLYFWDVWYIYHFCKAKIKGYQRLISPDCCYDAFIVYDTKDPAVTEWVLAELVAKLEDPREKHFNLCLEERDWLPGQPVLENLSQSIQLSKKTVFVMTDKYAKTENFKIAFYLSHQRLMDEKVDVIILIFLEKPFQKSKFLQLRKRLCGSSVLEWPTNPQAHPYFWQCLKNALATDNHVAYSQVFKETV
The experiment in a line: Antagonist activity at TLR7 in HEK cells assessed as decrease in R848-induced NF-kappaB activation incubated for 30 mins followed by R848 addition measured after 5 hrs by steady-Glo reagent based assay. The format is cell-based.
The term IC50 denotes the concentration at which inhibition is half-maximal. For the compound `C[C@H]1C[C@@H](NC(=O)[C@@H](O)C(C)(C)C)C[C@H](c2ccc(C(F)(F)F)c3nccnc23)C1`, the IC50 was below 1000 nM. As for `C[C@@H]1C[C@H](c2ccc(C#N)c3ncccc23)CN(C(=O)CN2CCN(C)CC2)C1`, the IC50 was below 1000 nM.

Regarding `C[C@@H]1C[C@H](c2ccc(C(F)(F)F)c3ncccc23)CN(C(=O)NC2CC2)C1`, the IC50 fell in the range of 1000 to 20000 nM. Next, `C[C@@H]1C[C@H](c2ccc(C#N)c3ncccc23)CN(C(=O)CC2C3CC2CN(C)C3)C1` (some centres not stated): below 1000 nM; `C[C@@H]1C[C@@H](c2ccc(C#N)c3ncccc23)CN(C(=O)C[C@H]2[C@@H]3CNC[C@@H]32)C1`: below 1000 nM; `C[C@@H]1C[C@H](N)C[C@@H](c2ccc(C(F)(F)F)c3nccnc23)C1`: below 1000 nM. Next, `CC1CC(c2ccc(C#N)c3ncccc23)CN(CC2CCN(C)C2)C1` (configuration not stated): below 1000 nM; `C[C@@H]1C[C@H](c2ccc(C#N)c3ncccc23)CN(C(=O)NC2CCN(C)CC2)C1`: below 1000 nM. On to `C[C@@H]1C[C@@H](c2ccc(C(F)(F)F)c3ncccc23)CN(C(=O)CCn2cccn2)C1`, for which the IC50 is above 20000 nM. In the case of `Cc1ccc([C@H]2C[C@@H](C)CN(C(=O)CC3CCN(C)CC3)C2)c2cccnc12` it was below 1000 nM.

On to `C[C@@H]1C[C@H](N)C[C@H](c2ccc(C(F)(F)F)c3nccnc23)C1`, for which the IC50 is below 1000 nM. Next, `C[C@@H]1C[C@H](c2ccc(C#N)c3ncccc23)CN(C(=O)CC2CCN(C)CC2)C1`: below 1000 nM.
